Test results from patent EP4700036A1, “GLYCOLIPID DERIVATIVE AS MINCLE LIGAND” (The University of Osaka, priority 2023, dated 2024).

Target: T1, bovine Mincle (Bos taurus, UniProt E1BHM0)
T1 construct: expressed in transfected cells
T1 sequence (E1BHM0 1-211): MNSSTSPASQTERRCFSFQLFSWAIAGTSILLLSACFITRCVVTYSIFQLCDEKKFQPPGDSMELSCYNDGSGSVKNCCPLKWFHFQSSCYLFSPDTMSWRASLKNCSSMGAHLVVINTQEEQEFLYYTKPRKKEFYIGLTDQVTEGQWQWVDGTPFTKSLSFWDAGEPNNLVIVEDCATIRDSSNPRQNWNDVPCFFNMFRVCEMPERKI
Test: Mincle ligand activity, NFAT-GFP reporter cells expressing bovine Mincle
Assay type: cell-based
Details: 96-well plate, 0.03 to 3 nmol; Fig. 1 (right)
Method: Similarly, using NFAT-GFP reporter cells expressing bovine Mincle, prepared according to the method described in a literature (Yamasaki, S. et al, Nat Immunol 9, 1179-88(2008)), the ligand activity of HD-276 was evaluated on a 96-well plate. The doses of the test compounds (horizontal axis) were 0.03 to 3 (nmol) from the left to right.

- Mincle ligand activity (reporter activity): confirmed to have Mincle ligand activity
SMILES: CCCCCCc1ccc(O[C@@H]2O[C@@H](C)[C@H](O)[C@@H](OC)[C@H]2O[C@@H]2O[C@@H](C)[C@H](O[C@@H]3O[C@H](COC)[C@@H](O)[C@H](O)[C@H]3O)[C@@H](OC)[C@H]2OC)cc1 [HD-276]
